The values below come from US10646589B2, “Thyroid stimulating hormone receptor peptides and uses thereof” (APITOPE INTERNATIONAL NV, priority 2014, dated 2020).

One data set relates to Total thyroxine (T4). Put plainly: Detection of hyperthyroidism: total thyroxine (T4) in serum by ELISA. Type of data set: in vivo, DR3tg mice. The procedure:
Total thyroxine (T4) was measured in undiluted mouse serum (10 μl) using the CBI mouse/rat thyroxine ELISA kit (Calbiotech, Spring Valley, Calif., USA) according to the manufacturer's instructions. T4 values were computed from standards in the kit and expressed as μg/dl.
Alterations in top doses, and correspondingly in dose escalation doses, are indicated per experiment. Starting on the day of the first peptide treatment until termination of the experiment, mice were treated either MMI or propranolol. […] New osmotic pumps were implanted after 4 weeks. […] On day 0, mice were immunized by intramuscular injection with 10^9 or 10^10 Ad-TSHR viral particles and the immunization was repeated three weeks later. […] Mice were euthanized 5 weeks after the first immunization to obtain blood, thyroid and spleen samples. TSHR-induced splenocyte proliferation, cytokine secretion and anti-TSHR antibody levels were assessed as described below.
Total thyroxine (T4) was measured in undiluted mouse serum (10 μl) using the CBI mouse/rat thyroxine ELISA kit (Calbiotech, Spring Valley, Calif., USA) according to the manufacturer's instructions. T4 values were computed from standards in the kit and expressed as μg/dl. In addition to serum T4 determinations, thyroid histology was used as a parameter for hyperthyroidism. Thyroid glands were fixed in 10% neutral buffered formalin (pH 7.5), processed to sections and stained with hematoxylin and eosin.
A general note: ELISA stands for enzyme-linked immunosorbent assay.

Data set [1] deals with anti-TSHR antibodies (IgG class). The experiment in a line: Adenoviral animal model for GD: detection of anti-TSHR antibodies by ELISA. Type of data set: in vivo, DR3tg mice. Here is the method:
(§1) DR3tg mice were injected subcutaneously in the flank region with 22.5 pmol, 225 pmol and 2250 pmol ATX-GD-59 or control treatment on days −15, −13 and −11 respectively, followed by 3 injections of 22.5 nmol ATX-GD-59 (top dose/peptide) or control treatment on days −8, −6 and −4 (dose escalation schedule). Alterations in top doses, and correspondingly in dose escalation doses, are indicated per experiment.
Anti-TSHR antibodies (IgG class) against purified recombinant TSHR-ECD (Chesapeake-Perl) were measured using ELISA. […] The signal was developed with tetramethylbenzidine (TMB).
(§2) Alterations in top doses, and correspondingly in dose escalation doses, are indicated per experiment. […] New osmotic pumps were implanted after 4 weeks. […] On day 0, mice were immunized by intramuscular injection with 10^9 or 10^10 Ad-TSHR viral particles and the immunization was repeated three weeks later. […] Mice were euthanized 5 weeks after the first immunization to obtain blood, thyroid and spleen samples. TSHR-induced splenocyte proliferation, cytokine secretion and anti-TSHR antibody levels were assessed as described below.
Anti-TSHR antibodies (IgG class) against purified recombinant TSHR-ECD (Chesapeake-Perl) were measured using ELISA. […] The signal was developed with tetramethylbenzidine.
The signal was developed with tetramethylbenzidine (TMB).
Alterations in top doses, and correspondingly in dose escalation doses, are indicated per experiment. On day 0, mice were immunised by intramuscular injection with 10^9 Ad-TSHR or Ad-LacZ viral particles and the immunisation was repeated three weeks later. Five weeks after the first immunisation, blood and spleens were collected.

Data set [2] deals with TSHR-specific splenocyte proliferation. Put plainly: Adenoviral animal model for GD: TSHR-specific splenocyte proliferation. In kind it is in vivo, DR3tg mice. The note with it: 10^9 Ad-TSHR; ATX-GD-459 15 nmol top dose; MMI 500 μg daily s.c. pump; to be interpreted with caution. Here is the method: as §1, §2
Data set [3] is described as follows: Propranolol levels in mouse plasma by LC-MSMS. Type of data set: in vivo, DR3tg mice. Particulars: 10 mg/kg/day IP; 60-90 minutes post-dose; weeks 0 and 5; FIG. 18. Here is the method:
Blood samples were collected between 60 and 90 minutes post-dose and individual plasma levels compared between W0 and W5.

In data set [4] the test system is TSHR-induced T cell proliferation. Put plainly: Ex vivo tolerization experiment: TSHR-induced proliferation of LN cells and splenocytes after peptide pretreatment. In kind it is in vivo, DR3tg mice. The note with it: vs control-treated; s.c. dose escalation schedule; top dose 5D-K1 100 μg, 9B-N 33 μg, ATX-GD-59 15 nmol/peptide; 10 days after parental peptide/CFA immunization. Here is the method:
DR3tg mice were injected subcutaneously in the flank region with 0.1 μg, 1 μg and 10 μg peptides on days −15, −13 and −11 respectively, followed by 3 injections of 100 μg (top dose/peptide) soluble peptide (5D-K1 or 9B-N) on days −8, −6 and −4 (dose escalation schedule). The ATX-GD-59 is an equimolar mix of the peptides 5D-K1 (SEQ ID NO:1) and 9B-N (SEQ ID NO:2) and the top dose mentioned (nmol) is per peptide in the cocktail. A peptide dose of 100 ug corresponds to ˜45 nmol as both systems been used in different experiments. The peptides were administered subcutaneous in PBS. Alterations in top doses/peptide, and correspondingly in dose escalation doses, are indicated per experiment. On day 0, the mice were immunized subcutaneously in the base of the tail with 50 μg corresponding to the parental peptide (non-modified 5D and/or 9B) emulsified in Complete Freund adjuvants (CFA; 2 mg/ml Mycobacterium tuberculosis H37RA (Difco Laboratories, Michigan, US) in Incomplete Freund adjuvant (Difco)) (50 μg peptide in 100 μL CFA (100 μg H37RA)/injection). Ten days after immunization, draining LN and spleens were harvested. LN cells and splenocytes were isolated and cultured in X-vivo 15 medium supplemented with 2 mM L-glutamine, 50 U/mL penicillin and 50 U/mL streptomycin (all Lonza, Verviers, Belgium) in 96-well flat bottom plates. To investigate antigen-induced cell proliferation, 0.5×10^6 cells/well were cultured (200 μL/well) for 72 hours with TSHR-ECD in a concentration range of 0-25 μg/mL or with 12.5 μg/mL purified protein derivative (PPD; immunisation control; Statens serum institut, Copenhagen, Denmark). After 72 hours in a 37° C. incubator with 5% CO2, 60 μL of cell supernatant was harvested and frozen. 20 μL/well of tritiated thymidine (PerkinElmer, Zaventem, Belgium) were then added to the cells to obtain a final concentration of 1 μCi/well. The cells were incubated at 37° C. and 5% CO2, and after 16 h, plates were frozen. Thawed plates were harvested and read on a β-counter (Wallac 1450 Microbeta Trilux Liquid Scintillation Counter) to assess cell proliferation.
DR3tg or DR4tg mice were injected subcutaneously in the flank region with 0.1 μg, 1 μg and 10 μg of peptide on days −15, −13 and −11 respectively, followed by 3 injections of 33, 75 or 100 μg peptide (depending on top dose, see Figure legends) on days −8, −6 and −4 (dose escalation schedule). Alterations in top doses, and correspondingly in dose escalation doses, are indicated per experiment. On day 0, the mice were immunised subcutaneously in the base of the tail with 50 μg antigen (non-modified parental 15-mer peptide) emulsified in CFA (peptide/CFA). […] Thawed plates were harvested and read with β-counter (Wallac 1450 Microbeta Trilux Liquid Scintillation Counter) to assess the cell proliferation.

In data set [5] the test system is Antigen-specific T cell hybridomas with fixed or not fixed VAVY or BM14 cells (APCs). Put plainly: Antigen Processing Independent Presentation System (APIPS) assay. Type of data set: cell-based. Particulars: 25 μg/ml peptide; fixed or fresh VAVY (DR3) or BM14 (DR4) APCs; 48 h; IL-2 ELISA. Here is the method:
5×10^4 T cell hybridoma clones specific for RNB-5 (clone 50+35) or RNB-4 (clone 164+455) and TSHR were cultured in presence of TSHR and RNB-5D-K1 or RNB-4K-GKK in combination with 5×10^4 human DR3 expressing antigen presenting B cells (VAVY) (clone 50) or with DR4 expressing antigen presenting B cells (BM14) (Clone 35, 164, 455). Antigen-Presenting Cells (APC) were viable or previously fixed with 0.5% paraformaldehyde prior to addition to the culture wells. After 48 h of co-culture, the supernatants were harvested and analysed by ELISA to assess levels of IL-2 secretion. Results from representative clones are presented.
Antigen-specific T cell hybridomas were tested for their reactivity to the peptides, presented by fixed or not fixed VAVY or BM14 cells (=APCs). 5×10^4 cells from the individual clones were cultured with 25 μg/ml peptide and 5×10^4 fixed or fresh APCs. To fixate APCs, cells were incubated with 0.5% paraformaldehyde (Merck, Darmstadt, Germany) (pH7) for 5 min at room temperature (RT). The fixation reaction was stopped by adding 0.4M glycine (Sigma-Aldrich) and washing the cells in RPMI-10% FCS. Additionally, reactivity towards human TSHR-ECD protein (Chesapeake-PERL, Savage, Md., USA) was measured to identify epitopes. After 48 h, antigen-induced IL-2 production was measured by ELISA.

Where [6] appears, read: co-medication MMI 500 μg daily + ATX-GD-459 15 nmol.

Counter-ions that a name gives are not always drawn.

For the compound `Cn1cc[nH]c1=S` [MMI, methimazole], in the data set on Total thyroxine (T4) (50 μg dose), the “T4 levels, MMI 50 μg daily, model validation” value is on record as “only showed a trend towards reduced T4 levels”. In addition, the “T4 levels, MMI 500 μg daily, model validation” value in the data set on Total thyroxine (T4) (daily dose of 500 μg, both at 2 and 4 weeks after first immunisation) is given as “significantly reduced”. Also, in the data set with Total thyroxine (T4) (week 5, MMI 500 μg daily, ATX-GD-459 15 nmol top dose, 10^9 Ad-TSHR), the “effect on serum T4 levels, MMI co-medication study” value is given as “significantly reduced”. Moreover, in data set [1] (MMI 500 μg daily s.c. osmotic pump, 10^9 Ad-TSHR), the “effect on anti-TSHR antibody levels, MMI study” value is recorded as “had no effect”. The “effect on anti-TSHR IgG isotypes, MMI study” value in data set [1] (MMI 500 μg daily, 10^9 Ad-TSHR) is recorded as “had no effect”. In data set [1] (MMI 50 or 500 μg/mouse/day s.c. pump for 4 weeks, Ad-TSHR week 0 and 3), the “changes in anti-TSHR IgG levels, model validation” value is listed as “no changes”. In data set [1] (setting [6]), the “effect on antibody reducing capability of ATX-GD-459 (IgG isotypes), MMI study” value is recorded as “did not affect” and the “influence on antibody reducing capability of ATX-GD-459 (total IgG), MMI study” value was “did not influence”. In addition, the “effect on TSHR-specific splenocyte proliferation, MMI co-medication study” value in data set [2] is “significant reduction”.

With `CC(C)NCC(O)COc1cccc2ccccc12` (centres unmarked) [propranolol, Propranolol hydrochloride], the “Total T4 levels, propranolol co-medication study” value with Total thyroxine (T4) (week 5, propranolol 10 mg/kg/day IP, ATX-GD-459 15 nmol, 10^10 Ad-TSHR) was “not affected”. Also, the “plasma levels of propranolol” value in data set [3] is on record as “confirms pharmacological dose”.

For the compound “GLKMFPDLTKVYSTD (H-GLKMFPDLTKVYSTD-NH2) [Peptide 9B-N, TSHR peptide]”, in data set [4], the “reduction of TSHR-induced T cell proliferation, LN samples” value is given as 33% and the “reduction of TSHR-induced T cell proliferation, spleen samples” value stood at 41%.

As to “KKGNLPNISRIYVSIDVTGKK (H-KKGNLPNISRIYVSIDVTGKK-NH2) [RNB-4K-GKK, modified TSHR apitope peptide]”, the “apitope status (presentation by fixed APCs, IL-2 secretion)” value in data set [5] is given as “confirmed to be apitopes”.

Turning to “KKKKYVSIDVTLQQLESHKKK (H-KKKKYVSIDVTLQQLESHKKK-NH2) [Peptide 5D-K1, modified TSHR apitope peptide]”, in data set [5], the “apitope status (presentation by fixed APCs, IL-2 secretion)” value is “confirmed to be apitopes”. Also, in data set [4], the “reduction of TSHR-induced T cell proliferation, LN samples” value was 60% and the “reduction of TSHR-induced T cell proliferation, spleen samples” value came to 43%.
